# Data published in US20240108585A1, “COMPOSITIONS COMPRISING LIPID-BASED NANOPARTICLES FOR TREATING DIABETES MELLITUS” (SDG, Inc., priority 2018, published 2024).
# Columns and labels:
# [1] = tested on: type 1 diabetes mellitus (T1DM); test: ISLE-1: 26-week Phase 2b multicenter randomized double-blind non-inferiority trial, HDV-L vs LIS, multiple daily injections
# Description: ISLE-1 was a 26-week, Phase 2b, multicenter, randomized, double-blind, non-inferiority trial.
# ISLE-1 was a 26-week, Phase 2b, multicenter, randomized, double-blind, trial in T1DM treated with multiple daily injections (MDI) of insulin.
# Main inclusion criteria were: age ≥18 years; T1D for ≥12 months; A1c ≥7.0 ([…]) to ≤10.5% (≤91 mmol/mol); treated with insulins glargine or detemir for basal coverage. Main exclusion criteria were total insulin dose ≥1.5 IU/kg/day or NPH insulin as basal.
# Prandial dosing of HDV-lispro or control lispro was 15 minutes prior to the meal, and basal insulins were administered either as a single daily dose or a divided twice per day dosing, every 12 hours.
# Informed of −10% dilution, participants continued their current insulin parameters. Hypoglycemia was recorded on Case Report Forms (CRFs) based on subject diaries and SMBG records, subjectively investigator-judged as “mild,” “moderate,” “severe,” or “life threatening.” Blinded continuous glucose monitoring (CGM) (Dexcom G4) was used for 5-7 days to assess glucose at baseline, weeks 13 and 26. A1c, lipids, and liver enzymes were measured approximately monthly. Liver fat content MRIs were performed in a subset.
# The intent to treat (ITT) population included all randomized subjects receiving at least one dose of study treatment. Safety analyses included all randomized subjects. […] Mean A1c change was analyzed using ANCOVA within intent-to-treat (ITT) cohort at each visit. Post hoc subgroup analyses (baseline A1c <8.5% vs ≥8.5%) were performed, this cut point corresponding to pre-specified randomization strata. Direct likelihood models were used for treatment arm A1c comparisons, % time <54 mg/dL, bolus insulin, and basal insulin within the two A1c subgroups. Poisson regression models adjusting for site as random effect compared “severe” hypoglycemia incidence rates within A1c groups, testing for baseline A1c by treatment group interaction. Event number/subject was truncated at 15, accounting for extreme outliers.
# [2] = tested on: adult Type 1 diabetes mellitus; test: Example 3: double-blinded randomized six-week parallel study, HDV lispro vs lispro, multiple daily injections, CGM; type: in vivo, human
# Description: A double-blinded, randomized study was run comparing the efficacy of HDV lispro vs. lispro to treat adult Type 1 diabetes mellitus. The study involved 43 (1:1) subjects (who were considered to be in good control, with HbA1c levels between 7-8%) and was a six-week parallel design study, with multiple daily injections. The baseline HbA1c was 7.35 (HDV group) and 7.39 (lispro group). The primary endpoint was a two-hour reduction in glucose time out of range.
# [3] = tested on: adult Type 1 diabetes mellitus; test: Example 2 pump study: randomized double-blinded two-way crossover, HDV lispro vs lispro by insulin pump, CGM and mixed meal test; type: in vivo, human; conditions: baseline HbA1c 7.19; 3-week pump period; 7 subjects
# Description: A study was run comparing the efficacy of HDV lispro vs. lispro to treat adult Type 1 diabetes mellitus when administered by pump. The study involved 7 subjects and was a randomized, double-blinded two-way crossover study. The dosing duration was 3-week on standard insulin x 3-week on HDV-insulin with infusion via standard commercial insulin pumps, and a mixed meal test was employed; continuous glucose monitoring was achieved via blinded Dexcom G4 Platinum Continuous Glucose Monitor. The baseline HbA1c was 7.19, and the ending HbA1c was 7.21 (for the HDV group) and 7.08 (for the lispro group).
substance,measurement,setting,value
insulin lispro,treatment-related serious adverse events,[1]; 26 weeks,No treatment-related serious adverse events were reported
same,Mean change in A1c baseline to Week 26,"[1]; all subjects, HDV-L n=118, LIS n=58",−0.16%
same,change in A1c over time,[1]; baseline A1c <8.5%,little change
same,time <54 mg/dL during Week 26 (median),"[1]; baseline A1c <8.5%, CGM, p=0.16",0.6%
same,"CRF-reported incidence of ""severe"" hypoglycemia","[1]; baseline A1c <8.5%, p=0.001, unit not given",21
same,percentage time <54 mg/dL during Week 26 (median),"[1]; baseline A1c >8.5%, CGM, p=0.09",2.6%
same,change in total cholesterol,[1]; over the study,7.3 mg/dL
same,"""life threatening"" hypoglycemia events",[1]; whole study,No “life threatening” events were recorded
same,"Time in Range (70-180 mg/dL), increase",[2],*No Change in Lispro Group
same,"Time in Target (70-140 mg/dL), increase",[2],*No Change in Lispro Group
same,ending HbA1c,[3],7.08
